Measurements published in US9469650B2, “Melampomagnolide B derivatives” (BOARD OF TRUSTEES OF THE UNIVERSITY OF ARKANSAS, priority 2013, dated 2016).
Like-named read-outs stand apart in the source and are kept apart here.

How the values were obtained:
[1] = test system: OVCAR-4; assay: panel of 60 human tumor cell lines, growth inhibition (Ovarian Cancer); type: cell-based; settings: for GI50 / IC (TGI) / CC50: Homo sapiens; for CC50: read-out: LC50 (the source's name)
[2] = test system: panel of 60 human tumor cell lines; assay: panel of 60 human tumor cell lines, whole panel or sub-panel (single concentration screen, summaries); type: cell-based; settings: for inhibition at 10 µM: single concentration of 10^−5 M, read-out: growth inhibition in at least eight human cancer cell lines from the panel; for GI50: range over 6a and 6e
[3] = test system: HL-60(TB); assay: cells; settings: Homo sapiens; for GI50: HL-60; for CC50: HL-60, read-out: LC50; for IC (TGI): HL-60, read-out: TGI
[4] = test system: AML 052308 cells
Text: Derivatives were screened for antileukemic activity against AML cells in culture (See FIGS. 1-7).

[5] = test system: RPMI-8226; assay: panel of 60 human tumor cell lines, growth inhibition (Leukemia); settings: for GI50 / CC50: Homo sapiens; for CC50: RPMI-8226, read-out: LC50
[6] = test system: MALME-3M; assay: panel of 60 human tumor cell lines, growth inhibition (Melanoma); settings: for GI50 / CC50: Homo sapiens, Malme-3M; for CC50: read-out: LC50; for TGI / Percent Growth: MALME-3M
[7] = RPMI-8226, Log10 Concentration −4.0
[8] = RPMI-8226, Log10 Concentration −5.0
[9] = RPMI-8226, Log10 Concentration −6.0
[10] = RPMI-8226, Log10 Concentration −7.0
[11] = RPMI-8226, Log10 Concentration −8.0
[12] = OVCAR-4, Log10 Concentration −4.0
[13] = OVCAR-4, Log10 Concentration −5.0
[14] = OVCAR-4, Log10 Concentration −6.0
[15] = OVCAR-4, Log10 Concentration −7.0
[16] = OVCAR-4, Log10 Concentration −8.0

Row | SMILES | inhibition at 10 µM [2] | GI50 [3] | CC50 [3] | IC (TGI) [3] | cytotoxicity compared to MMB [4] | GI50 ([1]; OVCAR-4, NCI five dose) | IC (TGI) ([1]; OVCAR-4, NCI five dose) | CC50 ([1]; OVCAR-4, NCI five dose) | GI50 ([5]; RPMI-8226) | CC50 [5] | Percent Growth [5, 7] | Percent Growth [5, 8] | Percent Growth [5, 9] | Percent Growth [5, 10] | Percent Growth [5, 11] | GI50 [6] | CC50 [6] | Percent Growth ([6]; Log10 Concentration −4.0) | Percent Growth ([6]; Log10 Concentration −5.0) | Percent Growth ([6]; Log10 Concentration −6.0) | also measured
1 | C=C1C(=O)O[C@H]2[C@H]1CC/C(COC(=O)OCCCN1CCCCC1)=C\CC[C@@]1(C)O[C@@H]21 [JVM 2-26] | > 60% | 1.88 µM | 98.7 µM | 7.53 µM | more potent than MMB | – | – | – | – | – | – | – | – | – | – | – | – | – | – | – | GI50 ([1]; OVCAR-4): 2.13 µM; IC (TGI) ([1]; OVCAR-4): 11.6 µM; CC50 ([1]; OVCAR-4): 38.6 µM; fold more cytotoxic than MMB [4]: 3 fold
2 | C=C1C(=O)O[C@H]2[C@H]1CC/C(COC(=O)NCCCCCCO)=C\CC[C@@]1(C)O[C@@H]21 [JVM 2-31] | > 60% | 3.64 µM | > 100 µM | 14.2 µM | – | 4.01 µM | 19.4 µM | 65.1 µM | – | – | – | – | – | – | – | – | – | – | – | – | –
3 | C=C1C(=O)O[C@H]2[C@H]1CC/C(COC(=O)OCCN(C)C)=C\CC[C@@]1(C)O[C@@H]21 [JVM 2-35] | > 60% | 1.77 µM | 87 µM | 6.4 µM | – | 5.04 µM | 18.6 µM | 44.6 µM | – | – | – | – | – | – | – | – | – | – | – | – | –
4 | C=C1C(=O)O[C@H]2[C@H]1CC/C(COC(=O)OC)=C\CC[C@@]1(C)O[C@@H]21 [JVM 2-40] | > 60% | 1.69 µM | 76.3 µM | 7.15 µM | – | 3.76 µM | 18.7 µM | 64.1 µM | – | – | – | – | – | – | – | – | – | – | – | – | –
5 | C=C1C(=O)O[C@H]2[C@H]1CC/C(COC(=O)NCCN1CCOCC1)=C\CC[C@@]1(C)O[C@@H]21 [JVM 57, ((1aR,7aS,10aS,10bS,E)-1a-methyl-8-methylene-9-oxo-1a,2,3,6,7,7a,8,9,10a,10b-decahydrooxireno[2′,3′:9,10]-cyclodeca[1,2-b]furan-5-yl)-methyl(2-morpholinoethyl)carbamate] | > 60% | 3.59 µM | 85.1 µM | 16.1 µM | less active than MMB | – | – | – | 5.72 µM | > 100 µM | −47% | 34% | 99% | 97% | 100% | 6.12 µM | 63.2 µM | −72% | 37% | 97% | GI50 ([1]; OVCAR-4): 10.1 µM; IC (TGI) ([1]; OVCAR-4): 25.3 µM; CC50 ([1]; OVCAR-4): 63.4 µM; TGI ([5]; RPMI-8226): 2.63E−5; TGI [6]: 2.19E−5; Percent Growth ([6]; Log10 Concentration −7.0): 91%; Percent Growth ([6]; Log10 Concentration −8.0): 100%
6 | C=C1C(=O)O[C@H]2[C@H]1CC/C(COC(=O)NCCN1CCCC1)=C\CC[C@@]1(C)O[C@@H]21 [JVM 59, ((1aR,7aS,10aS,10bS,E)-1a-methyl-8-methylene-9-oxo-1a,2,3,6,7,7a,8,9,10a,10b-decahydrooxireno[2′,3′:9,10]cyclodeca[1,2-b]furan-5-yl)methyl-(2-(pyrrolidin-1-yl)ethyl)carbamate] | > 60% | 4.15 µM | 70.3 µM | 18.3 µM | almost equal cytotoxicity to MMB | – | – | – | 8.71 µM | 97.1 µM | −51% | 47% | 97% | 98% | 184% | 4.18 µM | 55.2 µM | −74% | 18% | 102% | GI50 ([1]; OVCAR-4, five dose): 10.4 µM; IC (TGI) ([1]; OVCAR-4, five dose): 24.7 µM; CC50 ([1]; OVCAR-4, five dose): 58.5 µM; TGI ([5]; RPMI-8226, five dose): 3.01E−5; TGI ([6]; five dose): 1.59E−5; Percent Growth ([6]; Log10 Concentration −7.0): 93%; Percent Growth ([6]; Log10 Concentration −8.0): 91%
7 | C=C1C(=O)O[C@H]2[C@H]1CC/C(COC(=O)NCCc1ccccn1)=C\CC[C@@]1(C)O[C@@H]21 [JVM 61, ((1aR,7aS,10aS,10bS,E)-1a-methyl-8-methylene-9-oxo-1a,2,3,6,7,7a,8,9,10a,10b-decahydrooxireno[2′,3′:9,10]cyclodeca[1,2-b]furan-5-yl)methyl-(2-(pyridin-2-yl)ethyl)carbamate] | > 60% | – | – | – | almost equal cytotoxicity to MMB | – | – | – | 8.2 µM | > 100 µM | −32% | 45% | 100% | 100% | 102% | 7.52 µM | 84.9 µM | −57% | 44% | 95% | GI50 ([1]; OVCAR-4): 7.17 µM; IC (TGI) ([1]; OVCAR-4): 24.6 µM; CC50 ([1]; OVCAR-4): 72.3 µM; Percent Growth [1, 12]: −65%; Percent Growth [1, 13]: 42%; Percent Growth [1, 14]: 99%; Percent Growth [1, 15]: 96%; Percent Growth [1, 16]: 103%; TGI ([5]; RPMI-8226): 3.88E−5; TGI [6]: 2.71E−5; Percent Growth ([6]; Log10 Concentration −7.0): 100%; Percent Growth ([6]; Log10 Concentration −8.0): 114%
8 | C=C1C(=O)O[C@H]2[C@H]1CC/C(COC(=O)Nc1n[nH]c(SC)n1)=C\CC[C@@]1(C)O[C@@H]21 [JVM 64, ((1aR,7aS,10aS,10bS,E)-1a-methyl-8-methylene-9-oxo-1a,2,3,6,7,7a,8,9,10a,10b-decahydrooxireno[2′,3′:9,10]cyclodeca[1,2-b]furan-5-yl)methyl-(5-(methylthio)-1H-1,2,4-triazol-3-yl)carbamate] | > 60% | – | – | – | more potent than MMB | 3.28 µM | 19.3 µM | 62.4 µM | 2.57 µM | > 100 µM | −46% | −11% | 93% | 100% | 101% | 2.32 µM | 78.8 µM | −54% | −12% | 66% | GI50 ([2]; sub-panel breast cancer): 0.57 to 3.07 µM; GI50 ([2]; sub-panel colon cancer): 1.12 to 2.06 µM; GI50 ([2]; sub-panel melanoma): 0.46 to 2.84 µM; GI50 ([2]; sub-panel non-small cell lung cancer): 0.65 to 1.45 µM; GI50 ([2]; sub-panel renal cancer): 0.9 to 2.6 µM; fold more cytotoxic than MMB [4]: 3 fold; TGI ([5]; RPMI-8226, NCI five dose): 7.79E−6; Percent Growth ([6]; Log10 Concentration −7.0): 99%; Percent Growth ([6]; Log10 Concentration −8.0): 104%; TGI ([6]; NCI five dose): 7.53E−6
9 | C=C1C(=O)O[C@H]2[C@H]1CC/C(COC(=S)n1ccnc1)=C\CC[C@@]1(C)O[C@@H]21 [JVM 66] | > 60% | 4.05 µM | 69.5 µM | 16.2 µM | more potent than MMB | 19.8 µM | 90.9 µM | > 100 µM | 11 µM | > 100 µM | −31% | 53% | 102% | 103% | 103% | 14.5 µM | > 100 µM | −32% | 66% | 107% | fold more cytotoxic than MMB [4]: about 6 fold; fold more potent than parthenolide ([4]; AML 052308 cells): 3 fold; TGI ([5]; RPMI-8226, NCI five dose): 4.29E−5; Percent Growth ([6]; Log10 Concentration −7.0): 95%; Percent Growth ([6]; Log10 Concentration −8.0): 94%; TGI ([6]; NCI five dose): 4.74E−5
10 | C=C1C(=O)O[C@H]2[C@H]1CC/C(COC(=O)CCC(=O)NCc1ccc(Cl)nc1)=C\CC[C@@]1(C)O[C@@H]21 [JVM 96] | > 60% | 2.12 µM | > 100 µM | 8.75 µM | – | – | – | – | 4.16 µM | > 100 µM | −48% | 23% | 94% | 107% | 106% | – | – | – | – | – | GI50 ([1]; OVCAR-4): 10.1 µM; IC (TGI) ([1]; OVCAR-4): 23.6 µM; CC50 ([1]; OVCAR-4): 55.2 µM; Percent Growth [1, 12]: −85%; Percent Growth [1, 13]: 51%; Percent Growth [1, 14]: 87%; Percent Growth [1, 15]: 90%; Percent Growth [1, 16]: 96%; TGI ([5]; RPMI-8226): 2.09E−5
